Reference: patent publication US11590116B2 (THERAVANCE BIOPHARMA R&D IP, LLC, priority 2019, dated 2023)
Like-named read-outs stand apart in the source and are kept apart here.

Tests used:
[1] = tested on: TGF-β-stimulated SMAD3 phosphorylation in BEAS-2B cells; assay: Cellular ALK5 potency assay, inhibition of TGF-β stimulated pSMAD3 formation in BEAS-2B cells; format: cell-based; conditions: Homo sapiens, read-out: BEAS2B pIC50 (converted)
Summary of the method: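 BEAS-2B human lung epithelial cells pre-treated 1 h at 37° C with compound in HBSS/25 mM HEPES/1% BSA, then stimulated 30 min with 10 ng/mL TGF-β (final). Lysates assayed for pSMAD3 by AlphaLISA; pIC50 from dose-dependent change versus stimulated untreated cells.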

[2] = target: T1, recombinant human ALK5 (TGF-βR1) protein (Homo sapiens, UniProt P36897); assay: Biochemical ALK5 (TGF-βR1) assay to measure pKi (LANCE Ultra ULight kinase assay); conditions: apparent pKi from pIC50 by Cheng-Prusoff, read-out: ALK5 pKi (converted)
T1 construct: purchased Life Technologies PR9075A
T1 sequence (P36897 34-503): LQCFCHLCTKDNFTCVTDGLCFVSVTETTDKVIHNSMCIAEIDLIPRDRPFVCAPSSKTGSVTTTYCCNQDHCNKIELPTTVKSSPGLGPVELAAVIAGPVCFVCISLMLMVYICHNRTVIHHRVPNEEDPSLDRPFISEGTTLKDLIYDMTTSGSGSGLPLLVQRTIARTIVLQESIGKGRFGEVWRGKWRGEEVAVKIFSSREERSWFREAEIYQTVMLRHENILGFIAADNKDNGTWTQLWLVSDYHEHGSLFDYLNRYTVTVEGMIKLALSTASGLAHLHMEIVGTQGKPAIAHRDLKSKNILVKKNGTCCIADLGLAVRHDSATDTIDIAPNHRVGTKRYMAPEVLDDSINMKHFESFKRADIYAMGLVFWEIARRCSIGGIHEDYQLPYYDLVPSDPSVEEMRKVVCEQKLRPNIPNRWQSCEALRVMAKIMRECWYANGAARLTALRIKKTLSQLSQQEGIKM
Summary of the method: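 After a 60 min room-temperature preincubation of ALK5 with compound, phosphorylation proceeds 60 min at 37 °C on ATP addition (125 μM as 5× stock). Detection: Eu-labelled phospho-Thr1342 Topo IIα antibody in EDTA buffer, pH 7.0; emission 665 nm.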

[3] = inhibition of TGF-β stimulated pSMAD3 formation, BEAS-2B cells

| Compound | IC50 [1, 3] [nM] | Ki [2] [nM] | IC50 ([1]; BEAS-2B) [nM] |
| --- | --- | --- | --- |
| Cc1cccc(-c2nc3ccccn3c2-c2ccc3ncc(N4CCC(N5CCN(C)CC5)CC4)cc3n2)n1 [Compound 326, 7-[4-(4-methylpiperazin-1-yl)-1-piperidyl]-2-[2-(6-methyl-2-pyridyl)imidazo[1,2-a]pyridin-3-yl]-1,5-naphthyridine] | 25.1 to 158 | 0.0398 to 0.316 | – |
| CNCCn1cc(-c2cnc3ccc(-c4c(-c5cccc(C)n5)nn5c4CNCC5)cc3c2)cn1 [Compound 327, N-methyl-2-[4-[6-[2-(6-methyl-2-pyridyl)-4,5,6,7-tetrahydropyrazolo[1,5-a]pyrazin-3-yl]-3-quinolyl]pyrazol-1-yl]ethanamine] | 200 to 1260 | 0.0398 to 0.316 | – |
| CNC1CCN(c2cnc3ccc(-c4c(-c5cccc(C)n5)[nH]c5cccnc45)nc3c2)CC1 [Compound 328, N-methyl-1-[6-[2-(6-methyl-2-pyridyl)-1H-pyrrolo[3,2-b]pyridin-3-yl]-1,5-naphthyridin-3-yl]piperidin-4-amine] | 200 to 1260 | 0.398 to 3.16 | – |
| Cc1nc(-c2n[nH]cc2-c2ccc3ncc(-c4nc5c(s4)CNCC5)cc3n2)ccc1F [Compound 329, 2-[6-[3-(5-fluoro-6-methyl-2-pyridyl)-1H-pyrazol-4-yl]-1,5-naphthyridin-3-yl]-4,5,6,7-tetrahydrothiazolo[5,4-c]pyridine] | 25.1 to 158 | 0.0398 to 0.316 | – |
| Cc1cccc(-c2nn3cc(Cl)ccc3c2-c2ccc3ncc(-c4cn[nH]c4)cc3n2)n1 [Compound 330, 2-[6-chloro-2-(6-methyl-2-pyridyl)pyrazolo[1,5-a]pyridin-3-yl]-7-(1H-pyrazol-4-yl)-1,5-naphthyridine] | 25.1 to 158 | 0.0398 to 0.316 | – |
| Cc1nc(-c2n[nH]cc2-c2ccc3ncc(-c4cnc5n4CCN5)cc3n2)ccc1F [Compound 332, 7-(6,7-dihydro-5H-imidazo[1,2-a]imidazol-3-yl)-2-[3-(5-fluoro-6-methyl-2-pyridyl)-1H-pyrazol-4-yl]-1,5-naphthyridine] | 25.1 to 158 | < 0.0316 | – |
| Cc1cccc(-c2n[nH]cc2-c2ccc3ncc(-c4cnc(N)s4)cc3n2)n1 [Compound 333, 5-[6-[3-(6-methyl-2-pyridyl)-1H-pyrazol-4-yl]-1,5-naphthyridin-3-yl]thiazol-2-amine] | 25.1 to 158 | 0.0398 to 0.316 | – |
| Cc1nc(-c2n[nH]cc2-c2ccc3ncc(N4CCC(N)C4)cc3n2)ccc1F (stereo not shown) [Compound 334, 1-[6-[3-(5-fluoro-6-methyl-2-pyridyl)-1H-pyrazol-4-yl]-1,5-naphthyridin-3-yl]pyrrolidin-3-amine] | 25.1 to 158 | 0.0398 to 0.316 | – |
| Cc1cccc(-c2n[nH]cc2-c2ccc3ncc(N4CCC(N5CCCC5)CC4)cc3n2)n1 [Compound 335, 2-(3-(6-methylpyridin-2-yl)-1H-pyrazol-4-yl)-7-(4-(pyrrolidin-1-yl)piperidin-1-yl)-1,5-naphthyridine] | 25.1 to 158 | < 0.0316 | – |
| Cc1cccc(-c2n[nH]cc2-c2ccc3ncc(N4CCC(N5CCCC5)C4)cc3n2)n1 (stereo not shown) [Compound 336, 2-[3-(6-methyl-2-pyridyl)-1H-pyrazol-4-yl]-7-(3-pyrrolidin-1-ylpyrrolidin-1-yl)-1,5-naphthyridine] | 25.1 to 158 | < 0.0316 | – |
| Cc1cccc(-c2[nH]ncc2-c2ccc3ncc(C(=O)NC4CCNCC4)cc3n2)n1 [Compound 337, 6-[5-(6-methyl-2-pyridyl)-1H-pyrazol-4-yl]-N-(4-piperidyl)-1,5-naphthyridine-3-carboxamide] | 200 to 1260 | 0.0398 to 0.316 | – |
| Cc1cccc(-c2[nH]cnc2-c2ccc3ncc(Nc4nc5n(n4)CCNC5)cc3c2)n1 [Compound 338, 6-(5-(6-methylpyridin-2-yl)-1H-imidazol-4-yl)-N-(5,6,7,8-tetrahydro-[1,2,4]triazolo[1,5-a]pyrazin-2-yl)quinolin-3-amine] | – | 0.0398 to 0.316 | 200 to 1260 |
| Cc1cccc(-c2[nH]nnc2-c2ccc3ncc(N4CCCNCC4)cc3c2)n1 [Compound 339, 3-(1,4-diazepan-1-yl)-6-[5-(6-methyl-2-pyridyl)-1H-triazol-4-yl]quinoline] | 200 to 1260 | 0.398 to 3.16 | – |
| Cc1cccc(-c2n[nH]cc2-c2ccc3ncc(-c4cn(CCN5CCOCC5)nn4)cc3n2)n1 [Compound 340, 4-[2-[4-[6-[3-(6-methyl-2-pyridyl)-1H-pyrazol-4-yl]-1,5-naphthyridin-3-yl]triazol-1-yl]ethyl]morpholine] | 25.1 to 158 | 0.0398 to 0.316 | – |
| Cc1cccc(-c2n[nH]cc2-c2ccc3ncc(-c4ccnc(C(C)(C)C#N)c4)cc3n2)n1 [Compound 341, 2-methyl-2-[4-[6-[3-(6-methyl-2-pyridyl)-1H-pyrazol-4-yl]-1,5-naphthyridin-3-yl]-2-pyridyl]propanenitrile] | < 20 | < 0.0316 | – |
| CNCc1cncc(-c2cnc3ccc(-c4nc[nH]c4-c4cccc(C)n4)cc3c2)c1 [Compound 342, N-methyl-1-[5-[6-[5-(6-methyl-2-pyridyl)-1H-imidazol-4-yl]-3-quinolyl]-3-pyridyl]methanamine] | 25.1 to 158 | 0.0398 to 0.316 | – |
| Cc1cccc(-c2n[nH]cc2-c2ccc3ncc(-c4nnn5c4CNCC5)cc3c2)n1 [Compound 343, 6-[3-(6-methyl-2-pyridyl)-1H-pyrazol-4-yl]-3-(4,5,6,7-tetrahydrotriazolo[1,5-a]pyrazin-3-yl)quinoline] | 25.1 to 158 | 0.0398 to 0.316 | – |
| Cc1cccc(-c2[nH]cnc2-c2ccc3ncc(N4CCN(C)C(CC(=O)O[C@@H]5CCNC5)C4)cc3c2)n1 (stereo partly drawn) [Compound 344, [(3R)-pyrrolidin-3-yl]2-[1-methyl-4-[6-[5-(6-methyl-2-pyridyl)-1H-imidazol-4-yl]-3-quinolyl]piperazin-2-yl]acetate] | 200 to 1260 | 0.0398 to 0.316 | – |
| Cc1cccc(-c2n[nH]cc2-c2ccc3ncc(-c4ccc(=O)n(C)c4)cc3n2)n1 [Compound 345, 1-methyl-5-[6-[3-(6-methyl-2-pyridyl)-1H-pyrazol-4-yl]-1,5-naphthyridin-3-yl]pyridin-2-one] | < 20 | < 0.0316 | – |
| Cc1cccc(-c2[nH]nnc2-c2ccc3ncc(N4CCC(N5CCN(C)CC5)CC4)cc3c2)n1 [Compound 346, 3-[4-(4-methylpiperazin-1-yl)-1-piperidyl]-6-[5-(6-methyl-2-pyridyl)-1H-triazol-4-yl]quinoline] | 25.1 to 158 | 0.0398 to 0.316 | – |
| CCc1cccc(-c2n[nH]cc2-c2ccc3ncc(N4CCC(N(C)C)CC4)cc3n2)n1 [Compound 348, 1-[6-[3-(6-ethyl-2-pyridyl)-1H-pyrazol-4-yl]-1,5-naphthyridin-3-yl]-N,N-dimethyl-piperidin-4-amine] | 25.1 to 158 | < 0.0316 | – |
| Cc1cccc(-c2n[nH]cc2-c2ccc3ncc(N4CCCNCC4)cc3n2)n1 [Compound 349, 7-(1,4-diazepan-1-yl)-2-[3-(6-methyl-2-pyridyl)-1H-pyrazol-4-yl]-1,5-naphthyridine] | 25.1 to 158 | 0.0398 to 0.316 | – |
| Cc1cccc(-c2c(-c3ccc4ncc(NCCN5CCN(C(C)C)CC5)cc4c3)nnn2Cc2ccccc2)n1 [Compound 351, 6-[1-benzyl-5-(6-methyl-2-pyridyl)triazol-4-yl]-N-[2-(4-isopropylpiperazin-1-yl)ethyl]quinolin-3-amine] | 200 to 1260 | 3.98 to 31.6 | – |
